Experiments:
Test in all cases: MHK against further strains (Table 2)
Format in all cases: cell-based
[1] = tested on: Staphylococcus aureus PEG 13-18-19; settings: Nr. 26 Staphylococcus aureus PEG 13-18-19, clinical isolate
Method: (§1) The tests were performed using the micro dilution method.
(§2) The determination of MIC values was performed according to the ninth edition of the Approved Standard M07-A9 (CLSI. Methods for Dilution Antimicrobial Susceptibility Tests for Bacteria That Grow Aerobically; Approved Standard—Ninth Edition. CLSI document M07-A9. Wayne, Pa.: Clinical and Laboratory Standards Institute; 2012.)

[2] = tested on: Acinetobacter baumannii PEG 10-12-26; settings: Nr. 22 Acinetobacter baumannii PEG 10-12-26, clinical isolate
Method: as §1, §2

[3] = tested on: Escherichia coli 100-2-56; settings: Nr. 3 Escherichia coli 100-2-56, clinical isolate
Method: as §1, §2

[4] = tested on: Klebsiella pneumoniae PEG-10-48-8; settings: Nr. 12 Klebsiella pneumoniae PEG-10-48-8, clinical isolate
Method: as §1, §2

[5] = tested on: Pseudomonas aeruginosa PEG-10-47-57; settings: Nr. 20 Pseudomonas aeruginosa PEG-10-47-57, clinical isolate
Method: as §1, §2

[6] = tested on: Pseudomonas aeruginosa PEG-10-2-61; settings: Nr. 7 Pseudomonas aeruginosa PEG-10-2-61, clinical isolate
Method: as §1, §2

[7] = tested on: Acinetobacter baumannii PEG 10-57-24; settings: Nr. 24 Acinetobacter baumannii PEG 10-57-24, clinical isolate
Method: as §1, §2

[8] = tested on: Enterobacter aerogenes 220-1-22; settings: Nr. 18 Enterobacter aerogenes 220-1-22, clinical isolate
Method: as §1, §2

[9] = tested on: Klebsiella pneumoniae 310-1-54; settings: Nr. 14 Klebsiella pneumoniae 310-1-54, clinical isolate
Method: as §1, §2

[10] = tested on: Klebsiella pneumoniae PEG-10-90-74; settings: Nr. 5 Klebsiella pneumoniae PEG-10-90-74, clinical isolate; KBE/ml 4.00E+05
Method: as §1, §2

[11] = tested on: Escherichia coli ATCC 25922; settings: Nr. 1 Escherichia coli ATCC 25922; KBE/ml 2.80E+05
Method: as §1, §2

[12] = tested on: Enterobacter asburiae PEG-13-74-62; settings: Nr. 19 Enterobacter asburiae PEG-13-74-62, clinical isolate; KBE/ml 8.20E+05
Method: as §1, §2

[13] = tested on: Pseudomonas aeruginosa PEG-10-44-76; settings: Nr. 21 Pseudomonas aeruginosa PEG-10-44-76, clinical isolate
Method: as §1, §2

[14] = tested on: Klebsiella pneumoniae PEG-10-20-4; settings: Nr. 4 Klebsiella pneumoniae PEG-10-20-4, clinical isolate
Method: as §1, §2

[15] = tested on: Enterococcus faecium PEG 13-17-59; settings: Nr. 29 Enterococcus faecium PEG 13-17-59, clinical isolate
Method: as §1, §2

[16] = tested on: Klebsiella pneumoniae PEG-10-75-61; settings: Nr. 13 Klebsiella pneumoniae PEG-10-75-61, clinical isolate; KBE/ml 4.00E+05
Method: as §1, §2

[17] = tested on: Escherichia coli 100-2-49; settings: Nr. 2 Escherichia coli 100-2-49, clinical isolate; KBE/ml 3.80E+05
Method: as §1, §2

[18] = tested on: Escherichia coli PEG 10-79-22; settings: Nr. 11 Escherichia coli PEG 10-79-22, clinical isolate
Method: as §1, §2

[19] = tested on: Pseudomonas aeruginosa ATCC 27853; settings: Nr. 6 Pseudomonas aeruginosa ATCC 27853; KBE/ml 5.60E+05
Method: as §1, §2

[20] = tested on: Enterococcus faecium PEG 13-73-65; settings: Nr. 30 Enterococcus faecium PEG 13-73-65, clinical isolate
Method: as §1, §2

[21] = tested on: Enterobacter cloacae PEG-10-52-78; settings: Nr. 17 Enterobacter cloacae PEG-10-52-78, clinical isolate
Method: as §1, §2

[22] = tested on: Staphylococcus aureus ATCC 29213; settings: Nr. 8 Staphylococcus aureus ATCC 29213; KBE/ml 6.60E+05
Method: as §1, §2

[23] = tested on: Staphylococcus aureus PEG 10-38-22; settings: Nr. 9 Staphylococcus aureus PEG 10-38-22, clinical isolate
Method: as §1, §2

[24] = tested on: Escherichia coli PEG 10-2-81; settings: Nr. 10 Escherichia coli PEG 10-2-81, clinical isolate
Method: as §1, §2

[25] = tested on: Klebsiella oxytoca PEG-10-75-18; settings: Nr. 15 Klebsiella oxytoca PEG-10-75-18, clinical isolate
Method: as §1, §2

[26] = tested on: Acinetobacter baumannii PEG 10-57-31; settings: Nr. 23 Acinetobacter baumannii PEG 10-57-31, clinical isolate; KBE/ml 2.60E+05
Method: as §1, §2

[27] = tested on: Klebsiella oxytoca PEG-10-45-54; settings: Nr. 16 Klebsiella oxytoca PEG-10-45-54, clinical isolate; KBE/ml 4.40E+05
Method: as §1, §2

[28] = tested on: Acinetobacter baumannii PEG 10-86-5; settings: Nr. 25 Acinetobacter baumannii PEG 10-86-5, clinical isolate; KBE/ml 2.00E+05
Method: as §1, §2

[29] = tested on: Enterococcus faecium PEG 13-9-13; settings: Nr. 28 Enterococcus faecium PEG 13-9-13, clinical isolate
Method: as §1, §2

[30] = tested on: Staphylococcus aureus PEG 13-71-26; settings: Nr. 27 Staphylococcus aureus PEG 13-71-26, clinical isolate
Method: as §1, §2

SMILES | MHK [1] | MHK [2] | MHK [3] | MHK [4] | MHK [5] | MHK [6] | MHK [7] | MHK [8] | MHK [9] | MHK [10] | MHK [11] | MHK [12] | MHK [13] | MHK [14] | MHK [15] | MHK [16] | MHK [17] | MHK [18] | MHK [19] | MHK [20] | also measured
COc1c(NC(=O)c2ccc(NC(=O)c3ccc(NC(=O)[C@H](Cc4c[nH]cn4)NC(=O)c4ccc(NC(=O)/C(C)=C/c5ccc(O)cc5)cc4)cc3)c(OC)c2O)ccc(C(=O)O)c1O [Compound 1, L-His-albicidin] | 8 mg/L | 16 mg/L | 2 mg/L | 32 mg/L | 8 mg/L | 32 mg/L | 2 mg/L | 32 mg/L | 32 mg/L | 32 mg/L | 0.063 mg/L | 32 mg/L | 4 mg/L | 32 mg/L | 32 mg/L | 32 mg/L | 0.5 mg/L | 0.25 mg/L | 2 mg/L | 32 mg/L | MHK [21]: 32 mg/L; MHK [22]: 8 mg/L; MHK [23]: 32 mg/L; MHK [24]: 0.5 mg/L; MHK [25]: 32 mg/L; MHK [26]: 32 mg/L; MHK [27]: 4 mg/L; MHK [28]: 4 mg/L; MHK [29]: 32 mg/L; MHK [30]: 4 mg/L
COc1c(NC(=O)c2ccc(NC(=O)c3ccc(NC(=O)[C@H](CN(C)C)NC(=O)c4ccc(NC(=O)/C(C)=C/c5ccc(O)cc5)cc4)cc3)c(OC)c2O)ccc(C(=O)O)c1O [Compound 2, L-DMDAP-Albicidin] | 32 mg/L | 32 mg/L | 32 mg/L | 32 mg/L | 32 mg/L | 32 mg/L | 32 mg/L | 32 mg/L | 32 mg/L | 32 mg/L | 0.125 mg/L | 32 mg/L | 32 mg/L | 32 mg/L | 32 mg/L | 32 mg/L | 32 mg/L | 32 mg/L | 32 mg/L | 32 mg/L | MHK [21]: 32 mg/L; MHK [22]: 32 mg/L; MHK [23]: 32 mg/L; MHK [24]: 32 mg/L; MHK [25]: 32 mg/L; MHK [26]: 32 mg/L; MHK [27]: 32 mg/L; MHK [28]: 32 mg/L; MHK [29]: 32 mg/L; MHK [30]: 32 mg/L

Source: US11225465B2, “Albicidin derivatives, their use and synthesis” (TECHNISCHE UNIVERSITÄT BERLIN, priority 2017, dated 2022)
